Experimental data: the METLIN SMRT retention time set (Domingo-Almenara et al. 2019)

Assay: gradient 5% acetonitrile 3 min, to 50% in 2 min, to 85% in 15 min, held 3 min, 100 µL/min
Details: column: Zorbax Extend-C18 2.1 x 50 mm; eluents: water / acetonitrile, 0.1% formic acid
In short: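 Pure standards were analyzed in mixtures of ~100 molecules using HPLC coupled to a quadrupole time-of-flight mass spectrometer, in both positive and negative ionization mode. Separation used a Zorbax Extend-C18 column (2.1 × 50 mm, 1.8 μm) at 100 μL/min, with water and acetonitrile each containing 0.1% formic acid. Dead and dwell volumes were 40 μL and 900 μL, and data were collected over 3 months. Retention time was read from computationally picked adduct peaks, each inspected manually.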

For CCCCN(C)S(=O)(=O)c1cc(-c2nc(C)cs2)n(CC(=O)N2CCCCC2)c1, the RP-LC retention time was 1080 s.
For O=C(c1ccc(F)c(F)c1)N1CCN(S(=O)(=O)c2cc3c4c(c2)CCC(=O)N4CCC3)CC1, the RP-LC retention time was 807 s.
Compound CCc1ccc2c(c1)cc(S(=O)(=O)c1ccccc1)c(=O)n2CC(=O)NC1CCCC1 has an RP-LC retention time of 942 s.
For CCOCC(=O)N1CCC(N2CC(OCC3CC3)C23CCCCC3)CC1 (configuration not stated), the RP-LC retention time was 644 s.
Cc1ccc(NC(=O)C2CCN(S(=O)(=O)c3ccc4c(c3)NC(=O)C(C)O4)CC2)c(Cl)c1 (configuration not stated) gave an RP-LC retention time of 812 s.
CCC(C)Sc1nnc(NC(=O)C2CCN(C(=O)c3ccccc3)CC2)s1 (configuration not stated) gave an RP-LC retention time of 854 s.
Work on COC(=O)CCc1sc(Nc2ccc(OC)cc2)nc1-c1ccc(OC)cc1 yielded an RP-LC retention time of 909 s.
Work on O=S(=O)(NC1CCCCCC1)c1ccc2c(c1)-c1oncc1CO2 yielded an RP-LC retention time of 1000 s.
Work on CC(C)Cn1c(=O)c(N2CCN(C(=O)C(C)C)CC2)nc2ccccc21 yielded an RP-LC retention time of 1020 s.
CCOC(=O)c1noc2nc(C)nc(NC3CCN(Cc4ccccc4)CC3)c12 gave an RP-LC retention time of 648 s.
Cn1cnnc1SCC(=O)N1CCc2ccccc21 gave an RP-LC retention time of 604 s.
Work on Cc1ccc(CC(=O)Nc2cnn(C)c(=O)c2N2CCOCC2)cc1 yielded an RP-LC retention time of 764 s.
For O=C(NC1CCS(=O)(=O)C1)C1CCN(C(=O)C2CC(=O)N(c3ccc(F)cc3)C2)CC1 (configuration not stated), the RP-LC retention time was 633 s.
Work on COc1ccc(OC)c(S(=O)(=O)NCCN2CCN(c3ccccc3F)CC2)c1 yielded an RP-LC retention time of 588 s.
Work on COc1cccc2cc(C(=O)Nc3nc4c(s3)CN(S(=O)(=O)C3CC3)CC4)oc12 yielded an RP-LC retention time of 811 s.
Nc1cc(C2CCN(C(=O)c3cc4ccccc4[nH]3)CC2)no1 showed an RP-LC retention time of 713 s.
In the case of CCS(=O)(=O)NCCc1csc(C)n1, the RP-LC retention time is reported as 572 s.
Work on COc1ccc(-c2csc(NC(=O)Cn3c(=O)oc4cc(Br)ccc43)n2)cc1 yielded an RP-LC retention time of 1070 s.
With Cc1cc(C)c(NC(=O)Cn2cnc3nc(N4CCC(C(=O)NC5CC5)CC4)sc3c2=O)c(C)c1 the RP-LC retention time was 754 s.
Work on CCc1cccc(C)c1Nc1c(-c2ccc(C)cc2)nc2ncccn12 yielded an RP-LC retention time of 878 s.
COc1cccc(-c2nc(-c3ccc(S(=O)(=O)N4CCCC4)cc3)no2)c1 showed an RP-LC retention time of 1180 s.
Work on COc1ccc(-c2nc(C)cc(C)c2CNS(=O)(=O)c2ccccc2C)cc1 yielded an RP-LC retention time of 658 s.
With CC(=O)NC(C)c1nc(-c2ccc(C(C)(C)C)cc2)no1 (configuration not stated) the RP-LC retention time was 901 s.
COc1ccc(CCNS(=O)(=O)c2cccc(-c3nc(-c4ccc(C)cc4)no3)c2)cc1OC showed an RP-LC retention time of 1150 s.
Work on CCCn1cc(C2=CCN(C(=O)Nc3ccc(OC)cc3)CC2)c2cccnc21 yielded an RP-LC retention time of 858 s.
Work on COc1ccc(CCNc2nc(-c3ccc(OC)c(OC)c3)cs2)cc1OC yielded an RP-LC retention time of 728 s.
Work on CCn1ccc(C(=O)N2CCc3cc(-c4csc(C5CC5)n4)ccc32)n1 yielded an RP-LC retention time of 1050 s.
With O=C(c1ccc2c(c1)OCO2)N1CCN(c2nc(CN3CCOCC3)cs2)CC1 the RP-LC retention time was 596 s.
CC(C)CN1C(=O)c2cccn2CC1C(=O)N1CCOCC1 (configuration not stated) gave an RP-LC retention time of 624 s.
Work on CCc1cc(C(=O)N2CCCCCC2)nc2cc(-c3ccsc3)nn12 yielded an RP-LC retention time of 1070 s.
Compound COc1cccc(CNC(=O)Cn2c(=O)c3cc(C4CC4)nn3c3ncccc32)c1 has an RP-LC retention time of 742 s.
Compound O=C(NCCCN1CCOCC1)c1ccc2ccnc(N3CCN(c4ccccc4)CC3)c2c1 has an RP-LC retention time of 586 s.
COc1cc(OC)cc(-c2nc(-c3ccc4ncn(C(C)C)c4c3)no2)c1 showed an RP-LC retention time of 843 s.
With C[C@H]1CN(C(=O)c2cc(F)cc(F)c2)C[C@@H]1c1nc(-c2cccnc2)no1 the RP-LC retention time was 795 s.
O=C(Nc1cccc(-c2ccc(N3CCOCC3)nn2)c1)Nc1cccc(Cl)c1F gave an RP-LC retention time of 770 s.
Compound CCNC(=O)c1ccc2c(c1)n(Cc1ccccc1)c(=O)c1ccnn12 has an RP-LC retention time of 774 s.
In the case of Cc1nnc(NC(=O)CCn2cnc3ccccc3c2=O)s1, the RP-LC retention time is reported as 588 s.
In the case of COC(=O)c1nnc2c(-c3ccc(F)cc3)c(C)nn2c1C, the RP-LC retention time is reported as 855 s.
For Cc1nc(-c2csc(S(=O)(=O)N3CCCC(C(=O)NC4CCCCCC4)C3)c2)no1 (configuration not stated), the RP-LC retention time was 1000 s.
Compound Cc1c(Cl)cccc1NC(=O)N1CCCC(Cn2cnc3cccnc32)C1 (configuration not stated) has an RP-LC retention time of 747 s.
With Cc1ccc(C)c(-c2nc(-c3cccc(-c4ccn[nH]4)c3)no2)c1 the RP-LC retention time was 1190 s.
In the case of COc1cccc(NC(=O)c2cc(C(C)(C)C)n3nccc3n2)c1, the RP-LC retention time is reported as 1250 s.
In the case of O=C(Nc1ccc2c(c1)CN(C(=O)Cn1c(=O)oc3ccccc31)CCO2)C1CC1, the RP-LC retention time is reported as 767 s.
CC(CC(C#N)(c1ccccc1)c1ccccc1)N1CCCCC1 (configuration not stated) showed an RP-LC retention time of 780 s.
With O=C(Nc1ccccc1)c1cccc(N2CC(C(=O)NC3CCCCCC3)CC2=O)c1 (configuration not stated) the RP-LC retention time was 862 s.
With COc1ccc(-c2cn3c(n2)N(C(=O)Cn2ccnc2)CCC3)cc1 the RP-LC retention time was 593 s.
Compound CN1CCN(c2ccc(CNC(=O)CN3CCN(Cc4ccc(F)cc4)C3=O)cc2)CC1 has an RP-LC retention time of 599 s.
With CNC(=O)C1CCCN(c2nc3ncn(CC(=O)Nc4cc(C)ccc4OC)c(=O)c3s2)C1 (configuration not stated) the RP-LC retention time was 678 s.
CNC(=O)CN1CCC(Oc2cc3c(Nc4cccc(Cl)c4F)ncnc3cc2OC)CC1 showed an RP-LC retention time of 610 s.
For Cc1cnc(C(=O)N[C@@H]2CCC[C@@H]2C(=O)NC(C)C)cn1, the RP-LC retention time was 582 s.
For Cc1ccc(NC(=O)C2CCN(S(=O)(=O)c3cc(C(=O)N(C)C)cs3)CC2)cc1C, the RP-LC retention time was 835 s.
Compound Cc1ccc(CNC(=O)C2CCN(Cc3cn(C)c4ccc(Cl)cc34)CC2)cc1 has an RP-LC retention time of 733 s.
CCn1c(CCNC(=O)c2ccc3c(c2)OCO3)nc2cccnc21 gave an RP-LC retention time of 599 s.
In the case of O=C(NCCN1CCCC1)C1CCCN(c2ccc(Sc3ccc(Br)cc3)nn2)C1 (configuration not stated), the RP-LC retention time is reported as 663 s.
CC(C)n1cnc(S(=O)(=O)N2CCC(C(=O)N3CCN(c4ccccn4)CC3)CC2)c1 showed an RP-LC retention time of 571 s.
Work on COc1ccc(N2CCN(CC(O)COc3c(C)cccc3C)CC2)cc1 (configuration not stated) yielded an RP-LC retention time of 698 s.
COc1cc(-c2nc(Cn3c(C)nc4ccccc4c3=O)no2)cc(OC)c1OC showed an RP-LC retention time of 801 s.
Compound CCOC(=O)Cc1csc(NC(=O)c2ccc(-c3nc4ccccc4s3)s2)n1 has an RP-LC retention time of 1010 s.
CSc1ccc(-c2nc3ncccn3c2Nc2ccccc2)cc1 gave an RP-LC retention time of 777 s.
With CN(C)c1ncncc1N1CCC(C(=O)N2CCN(c3ccccc3F)CC2)CC1 the RP-LC retention time was 650 s.
CCN1C(=O)COc2ccc(-c3csc(NC(=O)C4CCCO4)n3)cc21 (configuration not stated) showed an RP-LC retention time of 838 s.
CC(C)(C)c1noc(-c2ccnc(-n3cnc(C(=O)N4CCc5ccccc5C4)c3)c2)n1 gave an RP-LC retention time of 1080 s.
For O=c1ccn(-c2cccc(F)c2)nc1-c1nc(-c2ccc(OCc3ccccc3)cc2)no1, the RP-LC retention time was 1070 s.
Work on c1cn(-c2cc(N3CCCCC3)ncn2)cn1 yielded an RP-LC retention time of 613 s.
For Cc1c(Br)cc(C(=O)NC(C)C)c(C)c1C, the RP-LC retention time was 838 s.
CSc1ccccc1NC(=O)c1cc2ncc(Br)cn2n1 gave an RP-LC retention time of 1020 s.
CCc1noc(-c2nc(-c3ccc(OC)cc3)no2)n1 showed an RP-LC retention time of 986 s.
